Test results taken from US8030042B2, “Polyamino acid synthetase and gene encoding the same” (JNC Corporation, priority 2007, dated 2011).
≈ marks a conversion by molar mass, not a printed value.

B1: ε-poly-L-lysine biosynthetic enzyme: membrane-bound ε-poly-L-lysine biosynthetic enzyme (NRPS) from Streptomyces albulus strain IFO14147, amino acid sequence SEQ ID NO: 2 (protein, listed as Streptomyces albulus)
chain: MSSPLLESSFEPSEPAPQQALYRTAGNPAPRTLLDVLDATAAAHPQAIALDTGSEALTYRDLCIEIERRARQLRDRGIGPGDRVGVRVPSGTAELYLSILAVLRSGAAYVPVDADDPDERAATVFREAAVCAVLGPDGPLPGPARPLGDPRSAGPQDDAWIIFTSGSTGAPKGVAVSHRSAAAFVDAEADLFCQDQPLGPGDRVLAGLSVAFDASCEEMWLAWRYGACLVPAPRALVRAGHELGPWLVERGITVVSTVPTLAALWPDEAMRRVRLLIVGGESCPAGLVDRFAGPGREMWNTYGPTETTVVACAARLLPGEPVRIGLPLKGWQLAVVDRTGQPVPFGAEGELLISGVGTARYLDPAKDAERFRPDDALGAARVYRTGDLVRAEPEGLLFVGRADDQIKLGGRRIELGEIDAALAALPGVRGAAAAVQTTPAGTQVLVGYVVPEQRTADGSSFQQDKARALLQERLPAQLVPVLAEVESLPTRTSGKVDRKALPWPLPSAPVDSATGDPATALDGTAARLAGIWEELLGVRPGPDSDFVSLGGTSLVAARMASQLRIHHPGVSVADLYRHPVLRDMAEHLDSLGGPVDEVRPVRPVPRRTGFVQLLVQTGLYGIAGLRGLVGLALADNVLGLLAPQVWAPHTAWWLIIVGWVVLYSAPMRCALGALAARALAGTIKPGAYPRGGATHLRLWTAERVVAAFGVPSLLGTPWTRLYARSLGCATGRNVALHTMPPVTGLAELGDGCSVEPEADISGWWLDGDTLHIGAVRIGAGARVAHRSMLMPGAVVGQGAELASGACLDGEIPDGASWSGSPARPAGAAERMAGAAWPAPAWQRSRRWSAAYGLTLLGLSLLALLSTAPALVGAYFLLRDSGTLATAGLRLLLAVPVFTLLTTGCSLLVTAAVVRLLGRGITPGLHPASGGVAWRAWLVTRLLDGARGSLFPLYASLGTPHWLRLLGAKVGRHAEISTVLPLPSLLHVEDGAFLADDTLVAPFELRGGWLRLGTVRIGRRAFVGNSGIVDPGHDVPDHSLVGVLSNAPADGEPGSSWLGRPAMPLPRVATQADPARTFAPPRRLVRARAAVELCRVLPLMCGLALAEGVFLTEQDAFAQGGLGLAALVGAPLLLASGLVALLVTTLAKWLLVGRFTVSEHPLWSSFVWRNELYDTFVESLAVPSMAGAFTGTPVLNWWLRTLGAKIGRGVWLESYWLPETDLITVADGVSVNRGCVLQTHLFHDRIMRLDTVRLAEGSSLGPHGIVLPGTEVGARASIAPSSLVMRGESVPAHTRWAGNPIAGERPARPVPARAEGGAAA

What follows are molecules tested on Streptomyces albulus (assay: Microbial production of heteropolyamino acid by viable bacterium (LC-MS)). Settings: 8 mM analog, 16 mM L-threonine, L-lysine; pH 4.2, 30° C., 48 hours; FIG. 10.
Type: cell-based
Method: A bacterium of Streptomyces albulus, which was obtained by culturing in a M3G medium (Example 1) at 30° C. for 36 hours, was washed with 100 mM citrate buffer solution (pH 4.2) twice. The washed bacterium obtained from 100 ml of culture solution was suspended in a reaction solution for bacterium consisting of 50 ml of 5% glucose, 1% ammonium sulfate, 8 mM S-(2-aminoethyl)-L-cysteine, 16 mM L-threonine (the concentration of each of the amino acids corresponds to a minimum growth inhibitory concentration against the bacterium in a M9 minimum medium, i.e., a minimum concentration to inhibit aspartokinase which is the key enzyme for L-lysine biosynthesis), and 100 mM citrate buffer solution (pH 4.2) containing a given amount of L-lysine, and it was subjected to shaking culture at 30° C. for 48 hours. After the completion of culture, polyamino acid contained in the culture supernatant collected by centrifugation was subjected to LC-MS analysis using the method of Example 1 (paragraph [0091]).

| Molecule | Analog taken into the polylysine molecule by viable bacterium (heteropolyamino acid) |
| --- | --- |
| NCCSC[C@H](N)C(=O)O [S-(2-aminoethyl)-L-cysteine] | taken into the polylysine molecule |

What follows are molecules tested on Streptomyces albulus (assay: minimum growth inhibitory concentration against the bacterium in a M9 minimum medium). Settings: i.e. minimum concentration to inhibit aspartokinase.
Type: cell-based

| Molecule | MIC [mM] |
| --- | --- |
| NCCSC[C@H](N)C(=O)O [S-(2-aminoethyl)-L-cysteine] | 8 (≈ 1310 µg/mL) |
| C[C@@H](O)[C@H](N)C(=O)O [L-Thr, L-threonine] | 16 (≈ 1910 µg/mL) |

What follows are molecules tested on ε-poly-L-lysine biosynthetic enzyme (assay: ε-poly-L-lysine biosynthesis activity (L-[U-14C]lysine taken into ε-poly-L-lysine)). Settings: 5 mM Mg^2+, 5 mM Mn^2+; no concentration given for Ca^2+.
Type: biochemical, Streptomyces albulus strain IFO14147
Method: The measurement of the ε-poly-L-lysine biosynthesis activity was performed according to the method of Kawai et al. (Biochem Biophys Res Commun. 2003 Nov. 21; 311 (3): 635-40) with some modification. A reaction solution (40 μl), which includes: 1 mM L-lysine containing 92.5 kBq/ml L-[U-14C]lysine (Amersham Biosciences); 5 mM MgCl2; 5 mM ATP; 1 mM DTT; 20% (w/v) glycerol; 0.2% (w/v) NP-40; 100 mM TAPS-NaOH buffer solution (pH 8.5); and the enzyme, was incubated at 30° C. 10 μl of the reaction solution was spotted on a glass fiber filter paper having the diameter of 2.1 cm (Whatman), and it was immediately immersed in an ice-cold sodium solution of 5% (w/v) trichloroacetic acid-0.25% (w/v) tungstic acid. It was allowed to stand for 20 minutes and thereafter mildly shaken for 5 minutes. After the filter was shaken again in the same solution for 5 minutes, it was rinsed with ethanol and then dried. The amount of radioactivity bound to the filter was measured using a liquid scintillation counter (Aloka). The amount of enzyme by which 1 pmol/second of L-lysine is taken into ε-poly-L-lysine under the above-described reaction conditions was defined as 1 unit. Specific activity of a protein is represented by unit per 1 mg of the protein. Quantitation of protein was performed using the Bradford method. A calibration curve was made using bovine serum albumin (Wako Pure Chemical Industries, Ltd.).

| Molecule | Metal ion requirement: enzyme activity on addition of divalent cation |
| --- | --- |
| [Ca+2] [Ca^2+] | activated slightly |
| [Mn+2] [Mn^2+] | maximal activity |
| [Mg+2] [Mg^2+] | maximal activity |

Same assay, conditions: purified enzyme preparation

| Molecule | Optimum pH of synthesis reaction |
| --- | --- |
| B1 | 8.5 |

What follows are molecules tested on ε-poly-L-lysine biosynthetic enzyme (assay: adenylation activity of L-lysine and other amino acids by ATP-PPi exchange reaction). Settings: nucleotide in place of ATP.
Type: biochemical, Streptomyces albulus strain IFO14147

| Molecule | Nucleotide specificity: activation of substrate amino acids |
| --- | --- |
| Nc1nc2c(ncn2[C@@H]2O[C@H](COP(=O)(O)OP(=O)(O)OP(=O)(O)O)[C@@H](O)[C@H]2O)c(=O)[nH]1 [GTP] | not activated |
| Nc1ncnc2c1ncn2[C@@H]1O[C@H](COP(=O)(O)OP(=O)(O)OP(=O)(O)O)[C@@H](O)[C@H]1O [ATP] | ATP-specific |
| O=c1ccn([C@@H]2O[C@H](COP(=O)(O)OP(=O)(O)OP(=O)(O)O)[C@@H](O)[C@H]2O)c(=O)[nH]1 [UTP] | not activated |
| Nc1ccn([C@@H]2O[C@H](COP(=O)(O)OP(=O)(O)OP(=O)(O)O)[C@@H](O)[C@H]2O)c(=O)n1 [CTP] | not activated |

Each molecule was assayed on ε-poly-L-lysine biosynthetic enzyme (assay: Enzymatic production of heteropolyamino acid from lysine analog and L-lysine (ESI-LC-MS)). Settings: 2 mM substrate, L-lysine and analog mixed; 25° C., 4 hours; FIG. 9.
Type: biochemical, Streptomyces albulus strain IFO14147
Method: A reaction solution (200 μl) containing 2 mM substrate amino acid (L-lysine and analog were mixed in a given ratio), 5 mM MgCl2, 5 mM ATP, 1 mM DTT, 20% glycerol, 0.2% (w/v) NP-40, 100 mM TAPS-NaOH buffer solution (pH 8.5) and about 10 μg of the purified enzyme preparation was put into a 1.5 ml microtube, and it was incubated at 25° C. 4 hours later, polyamino acid produced in a manner similar to that in Example 1 was subjected to ESI-LC-MS analysis.

| Molecule | Analog taken into the polylysine molecule by the enzyme (heteropolyamino acid) |
| --- | --- |
| NCCOC[C@H](N)C(=O)O [O-(2-aminoethyl)-L-serine] | taken into the polylysine molecule |
| NCC(O)CCC(N)C(=O)O (racemic) [DL-5-hydroxylysine] | taken into the polylysine molecule |
| NCCSC[C@H](N)C(=O)O [S-(2-aminoethyl)-L-cysteine] | taken into the polylysine molecule |

Each molecule was assayed on ε-poly-L-lysine biosynthetic enzyme (assay: adenylation activity of L-lysine and other amino acids by ATP-PPi exchange reaction). Settings: 1 mM amino acid; "None" = was not adenylated.
Type: biochemical, Streptomyces albulus strain IFO14147
Method: The adenylation activity of L-lysine and other amino acids was measured by ATP-PPi exchange reaction. A reaction solution (40 μl), which includes: 1 mM L-lysine or another amino acid; 5 mM MgCl2; 5 mM. ATP; 1 mM DTT; 20% (w/v) glycerol; 0.2% (w/v) NP-40; 0.2 mM sodium diphosphate; 51.8 kBq/ml [32P] sodium diphosphate; 100 mM TAPS-NaOH buffer solution (pH 8.5); and the enzyme, was incubated at 30° C. 1.0 ml of a solution containing 1.2% (w/v) active carbon, 0.1 M sodium diphosphate and 0.35 M perchloric acid was added thereto to terminate the reaction. After the active carbon was washed with pure water, the amount of radioactivity bound to the active carbon was measured using a liquid scintillation counter (Aloka).

| Molecule | Substrate specificity: adenylated by the enzyme or not |
| --- | --- |
| N[C@@H](CS)C(=O)O [L-Cys] | None |
| NCCOC[C@H](N)C(=O)O [O-(2-aminoethyl)-L-serine] | adenylated |
| N[C@@H](Cc1ccc(O)cc1)C(=O)O [L-Tyr] | None |
| CSCC[C@H](N)C(=O)O [L-Met] | None |
| CC(C)[C@H](N)C(=O)O [L-Val] | None |
| NCC(O)CCC(N)C(=O)O (racemic) [DL-5-hydroxylysine] | adenylated |
| CC[C@H](C)[C@H](N)C(=O)O [L-Ile] | None |
| N=C(N)NCCC[C@H](N)C(=O)O [L-Arg] | None |
| CC(C)C[C@H](N)C(=O)O [L-Leu] | None |
| N[C@@H](Cc1c[nH]c2ccccc12)C(=O)O [L-Trp] | None |
| NCCSC[C@H](N)C(=O)O [S-(2-aminoethyl)-L-cysteine] | adenylated |
| NCCCC[C@@H](N)C(=O)O [D-lysine] | adenylated |
| N[C@@H](CCC(=O)O)C(=O)O [L-Glu] | None |
| N[C@@H](Cc1ccccc1)C(=O)O [L-Phe] | None |
| N[C@@H](Cc1c[nH]cn1)C(=O)O [L-His] | None |
| C[C@H](N)C(=O)O [L-Ala] | None |
| NCC(=O)O [Gly] | None |
| N[C@@H](CO)C(=O)O [L-Ser] | None |
| NC(=O)C[C@H](N)C(=O)O [L-Asn] | None |
| N[C@@H](CC(=O)O)C(=O)O [L-Asp] | None |
| NC(=O)CC[C@H](N)C(=O)O [L-Gln] | None |
| C[C@@H](O)[C@H](N)C(=O)O [L-Thr, L-threonine] | None |
| O=C(O)[C@@H]1CCCN1 [L-Pro] | None |

Same assay, conditions: activity to L-lysine regarded as 100%; FIG. 8

| Molecule | Relative activity in amino acid activation (adenylation) reaction [%] |
| --- | --- |
| NCCCC[C@H](N)C(=O)O [L-lysine] | 100 |
